“Also recorded” adds a separate entry of the source.
Key:
[1] = tested on: neuron-differentiated SH-SY5Y cells; assay: LDH release assay in neuron-differentiated SH-SY5Y cells; type: cell-based, human; details: for LDH release, dose-response pattern: increasing concentrations
Method: (§1) Rat cortical neurons were dissociated using a papain dissociation kit following manufacturer's instructions (Worthington, NJ; Cat #LK003150). Neurons were cultured in neurobasal medium with B27 supplement with 2 mM glutamine, 50 U/ml penicillin and 50 μg/mL. SH-SY5Y and B103 cells were cultured in DMEM (Sigma Cat #D6429-500M) supplemented with 5% fetal bovine serum. SH-SY5Y cells were differentiated with the addition of 10 μM retinoic acid for 7 days prior to experimentation. LDH assays were conducted with a LDH assay kit following manufacturer's instructions (cat #88954).

B103-EV cells = assay: LDH release assay in B103 cells with empty vector (lack APP); type: cell-based, rat; details: absence of APP, 18 hours
Method: as §1, with “experimentation. Transfections were conducted using Lippofectamine LTX (Thermofisher; cat #A12621) according to the manufacturer's instructions.” for “experimentation.”

B103-APP695 cells [2] = assay: LDH release assay in B103 cells stably transfected with APP695; type: cell-based, rat
Method: as §1, with “experimentation. Transfections were conducted using Lippofectamine LTX (Thermofisher; cat #A12621) according to the manufacturer's instructions.” for “experimentation.”

B103-APP695 cells [3] = assay: LIVE/DEAD assay in B103-APP695 cells; type: cell-based, rat; details: 50 μM 27OHC, APP-expressing cells
Method: Live dead cell assays were conducted with live dead cell assay kit according to the manufacturer's instructions (Thermofisher #L3224).

[4] = tested on: binding of AICD to the MAST4 promoter; assay: ChIP, AICD binding to MAST4 promoter, SH-SY5Y cells; type: cell-based, human; details: 5 μM 27OHC
Method: (§2) Chromatin Immunoprecipitation (ChIP) assays were conducted according to standard protocols published by ABcam. Following treatments, cells were incubated with formaldehyde at a final concentration of 0.75% for 10 minutes followed by glycine at a final concentration of 125 mM for an additional 5 minutes. Cells were then washed two times with Phosphate Buffered Saline (PBS) and lysed in FA lysis buffer (50 mM HEPES-KOH PH 7.5, 140 mM NaCl, 1 mM EDTA, 1% Triton X-100, 0.1% Sodium Deoxycholate, 0.1% SDS, protease inhibitors). Resulting cell lysates were sonicated to fragment DNA, spun down, and incubated with antibody conjugated protein A sepharose beads (ThermoFisher cat #101041) overnight with gentile agitation. Following incubation, beads were pelleted, washed three times with FA lysis buffer, and DNA was eluted with elution buffer (1% SDS, 100 mM NaHCO3). Resulting DNA fragments were further purified with a DNA purification kit (Clontech cat #740609.250) prior to qPCR analysis. Antibodies used were anti-APP C-terminus (Sigma #A8717); anti-FOXO1 (Abcam #39670).

[5] = tested on: binding of AICD to the MAST4 promoter; assay: ChIP, AICD binding to MAST4 promoter, transfected B103 cells; type: cell-based, rat
Method: as §2

[6] = tested on: binding of AICD to the MAST4 promoter; assay: ChIP, AICD binding to MAST4 promoter, rat cortical neurons; type: cell-based; details: 5 μM 27OHC
Method: as §1, with “experimentation.” for “experimentation. LDH assays were conducted with a LDH assay kit following manufacturer's instructions (cat #88954).”
as §2, with “Resulting DNA fragments were further purified with a DNA purification kit (Clontech cat #740609.250) prior to qPCR analysis. Antibodies used were anti-APP C-terminus (Sigma #A8717); anti-FOXO1 (Abcam #39670).” left out

MAST4 mRNA [7] = assay: qPCR of MAST4 mRNA, SH-SY5Y cells; type: cell-based, human; details: 5 μM 27OHC
Method: (§3) RNA was purified using TRIzol LS reagent according to the manufacturer's instructions (Thermofisher cat #10296010).
(§4) mRNA was purified with TRIzol reagent, converted to cDNA with reverse transcriptase according to the manufacturer's instructions and quantified with iTaq Universal SYBR Green Supermix (Bio-Rad cat #1725120). Results were determined using the delta-delta cycle threshold (ct) method.

MAST4 mRNA [8] = assay: qPCR of MAST4 mRNA, transfected B103 cells; type: cell-based, rat; details: B103 APP695, 5 μM 27OHC
Method: as §3, §4

MAST4 mRNA [9] = assay: qPCR of MAST4 mRNA, rat cortical neurons; type: cell-based; details: 5 μM 27OHC
Method: as §3, §4

MAST4 protein expression = assay: Immunoblot of MAST4 protein, SH-SY5Y cells; type: cell-based, human; details: 5 μM 27OHC
Method: (§5) Immunoblotting was conducted as previously described with the following antibodies: APP (Sigma #A8717; Millipore #22C11); MAST4 (GeneTex #GTX87899); FOXO1 (Cell Signaling Technology #2880); RTKN2 (Proteintech #17458-1-AP); caspase-3 (Cell Signaling Technology #9662); caspase-7 (Cell Signaling Technology #9492); actin (Sigma #A5316) (7).

[10] = tested on: FOXO1 phosphorylation by MAST4 kinase; assay: MAST4 in vitro kinase assay on immunoprecipitates from treated cells; type: cell-based, human
Method: Immunoprecipitations were conducted as outlined by ABcam under non-denaturing conditions.
Kinase activity was measured at 37° C. for 30 minutes in 50 μl kinase buffer (50 mM Tris, pH 7.4, 10 mM MgCl2) supplemented with 50 μM ATP and human recombinant FOXO1 (1 μg; Origene #TP300477). Kinase reactions were run on 4-20% Tris-Glycine polyacrylamide gels (Thermofisher) and byproducts identified with anti phospho-Serine/Threonine antibody (Abcam ab17464).

[11] = tested on: binding of FOXO1 to the RTKN2 promoter; assay: ChIP, FOXO1 binding to RTKN2 promoter, SH-SY5Y cells; type: cell-based, human; details: 5 μM 27OHC
Method: as §2

[12] = tested on: binding of FOXO1 to the RTKN2 promoter; assay: ChIP, FOXO1 binding to RTKN2 promoter, transfected B103 cells; type: cell-based, rat; details: B103 expressing APP695, 5 μM 27OHC
Method: as §2

[13] = tested on: binding of FOXO1 to the RTKN2 promoter; assay: ChIP, FOXO1 binding to RTKN2 promoter, rat cortical neurons; type: cell-based
Method: as §1, with “experimentation.” for “experimentation. LDH assays were conducted with a LDH assay kit following manufacturer's instructions (cat #88954).”
as §2

RTKN2 mRNA [14] = assay: qPCR of RTKN2 mRNA, SH-SY5Y cells; type: cell-based, human; details: control siRNA, 5 μM 27OHC
Method: as §3, §4

RTKN2 mRNA [15] = assay: qPCR of RTKN2 mRNA, transfected B103 cells; type: cell-based, rat; details: B103 with APP695, 5 μM 27OHC
Method: as §3, §4

RTKN2 mRNA [16] = assay: qPCR of RTKN2 mRNA, rat cortical neurons; type: cell-based
Method: as §3, §4

RTKN2 protein expression = assay: Immunoblot of RTKN2 protein, rat cortical neurons; type: cell-based; details: cytoprotective doses, 2.5 and 5 μM 27OHC
Method: as §5

[17] = tested on: activated caspase-3, activated caspase-7 and Bax/Bcl2 ratio; assay: Immunoblot of active caspases 3 and 7, Bax, Bcl-2 and RTKN2 in treated cells; type: cell-based
Method: as §5

Structure (SMILES): CC(C)C(O)CC[C@@H](C)[C@H]1CC[C@H]2[C@@H]3CC=C4C[C@@H](O)CC[C@]4(C)[C@H]3CC[C@]12C (stereo partly drawn) [24OHC, 24-hydroxycholesterol]
- LDH release, dose-response pattern ([1]; 18 hours): had no effect; also recorded: No LDH changes are measurable

Structure (SMILES): C[C@@H](CO)CCC[C@@H](C)[C@H]1CC[C@H]2[C@@H]3CC=C4C[C@@H](O)CC[C@]4(C)[C@H]3CC[C@]12C [27OHC, 27-hydroxycholesterol]
- cytotoxicity (LDH) ([1]; 15, 25, and 50 μM treatments): increasing cytotoxicity
- concentration of maximum protective effect (LDH) ([1]; 18 hours): 5 µM
- LDH release compared to baseline (solvent alone) ([1]; concentrations below 10 μM, 18 hours): decreased LDH compared to baseline
- cytotoxicity (LDH release) ([1]; higher concentrations (than 10 μM), 18 hours): dose-dependent cytotoxicity
- LDH release, dose-response pattern ([1]; 18 hours): biphasic dose-dependent cellular response
- LDH levels, dose-response (B103-EV cells): increased LDH levels in a dose-dependent manner; also recorded: Cytotoxicity is dose-dependent
- LDH levels (B103-APP695 cells [2]; 5 μM 27OHC): reduced LDH levels
- cytotoxicity (LDH) (B103-APP695 cells [2]; doses greater than 10 μM): dose-dependently cytotoxic
- LDH levels, dose-response pattern (B103-APP695 cells [2]; presence of APP695, 18 hours): biphasic response comparable to that shown by SH-SY5Y cells; also recorded: biphasic pattern
- dead/live cell abundance (B103-APP695 cells [3]): protective
- AICD binding to the MAST4 promoter [4]: AICD does bind to the MAST4 promoter
- AICD binding to the MAST4 promoter ([5]; B103 expressing APPG700A, 5 μM 27OHC): an effect not seen in cells expressing APPG700A
- AICD binding to the MAST4 promoter ([5]; B103 transfected with APP695, 5 μM 27OHC): increased AICD binding to the MAST4 promoter
- AICD interaction with the MAST4 promoter [6]: AICD also interacts with the MAST4 promoter
- MAST4 mRNA levels (MAST4 mRNA [7]): elevated MAST4 mRNA levels
- MAST4 mRNA levels (MAST4 mRNA [8]): elevated MAST4 mRNA levels
- MAST4 mRNA levels (MAST4 mRNA [9]): also present in rat primary neurons
- MAST4 protein expression (MAST4 protein expression): MAST4 protein expression increased
- FOXO1 phosphorylation in MAST4 immunoprecipitates ([10]; cells treated with 5 μM 27OHC): Increased FOXO1 phosphorylation
- FOXO1 phosphorylation in MAST4 immunoprecipitates ([10]; cells treated with 50 μM 27OHC): No increase in pSer-FOXO1
- FOXO1 binding to the RTKN2 promoter [11]: decrease of that binding
- FOXO1 binding to the RTKN2 promoter [12]: FOXO1 binding was also decreased
- FOXO1 binding to the RTKN2 promoter: decreased at 5 μM but not 50 μM ([13]; 5 and 50 μM 27OHC, FIG. 3F): confirmed in rat cortical neurons
- FOXO1 binding to the RTKN2 promoter ([13]; 15, 25, and 50 μM 27OHC): increasing
- FOXO1 binding to the RTKN2 promoter ([13]; cytoprotective doses, 2.5 and 5 μM 27OHC (b174 prints 5 M)): decreased binding of FOXO1 to the RTKN2 promoter
- RTKN2 mRNA (RTKN2 mRNA [14]): increased RTKN2 mRNA
- RTKN2 mRNA (RTKN2 mRNA [15]): RTKN2 was upregulated
- RTKN2 mRNA: upregulated at 5 μM but not 50 μM (RTKN2 mRNA [16]; 5 and 50 μM 27OHC, FIG. 3J): confirmed in rat cortical neurons
- RTKN2 mRNA (RTKN2 mRNA [16]; cytoprotective doses, 2.5 and 5 μM 27OHC): increased RTKN2 mRNA
- RTKN2 protein expression (RTKN2 protein expression): increased
- Bcl-2 ([17]; 5 μM 27OHC): robust increase in Bcl-2
- RTKN2 protein ([17]; 5 μM 27OHC): robust increase in Bcl-2 and RTKN2
- active forms of caspases 3 and 7 ([17]; 5 μM 27OHC): decrease in active forms of both caspases
- Bcl-2 ([17]; 50 μM 27OHC): decreased Bcl-2
- active forms of caspases 3 and 7 ([17]; 50 μM 27OHC): increased the active forms of both caspases
